In ChEMBL document CHEMBL6087416, “Discovery of novel fused-heterocycle-bearing diarypyrimidine derivatives as HIV-1 potent NNRTIs targeting tolerant region I for enhanced antiviral activity and resistance profile” (Eur J Med Chem, 2025):

Tests used:
in vitro [1] = details: human, MT4 cells
Description: Selectivity index, ratio of CC50 for human MT4 cells to EC50 for HIV-1 RES056 harboring RT K103N/Y181C mutant infected in human MT4 cells

[2] = test system: Human immunodeficiency virus 1; type: functional, organism-based; details: Human immunodeficiency virus 1, MT4, 120 h
[3] = test system: Human immunodeficiency virus 1; type: functional, organism-based; details: Human immunodeficiency virus 1, RES056, MT4, 120 h
[4] = test system: Human immunodeficiency virus 1; test: Antiviral activity against NNRTI-resistant HIV-1 harboring RT E138K mutant infected in human MT4 cells assessed as protection against virus-induced cytopathic effect incubated for 5 days by MTT assay; type: functional, organism-based; details: Human immunodeficiency virus 1, MT4, 120 h
[5] = Cytotoxicity against human MT4 cells assessed as reduction in cell viability measured after 5 days by MTT assay; type: toxicity, cell-based; details: time 5 day
[6] = test system: Human immunodeficiency virus 2; test: Antiviral activity against HIV-2 ROD infected in human MT4 cells assessed as protection against virus-induced cytopathic effect incubated for 5 days by MTT assay; type: functional, organism-based; details: Human immunodeficiency virus 2, ROD, MT4, 120 h
[7] = test system: Human immunodeficiency virus 1; type: functional, organism-based; details: Human immunodeficiency virus 1, MT4, 120 h; remark: listed apart in the source
[8] = test system: Human immunodeficiency virus 1; test: Antiviral activity against NNRTI-resistant HIV-1 harboring RT K103N mutant infected in human MT4 cells assessed as protection against virus-induced cytopathic effect incubated for 5 days by MTT assay; type: functional, organism-based; details: Human immunodeficiency virus 1, MT4, 120 h
in vitro [9] = details: human, MT4 cells; remark: listed apart in the source
Description: Selectivity index, ratio of CC50 for human MT4 cells to EC50 for wild type HIV-1 IIIB infected in human MT4 cells

[10] = test system: Human immunodeficiency virus 1; test: microbe, parasite or virus in culture; details: Human immunodeficiency virus 1, IIIB, MT4, 120 h
Description: Antiviral activity against wild type HIV-1 IIIB infected in human MT4 cells assessed as protection against virus-induced cytopathic effect incubated for 5 days by MTT assay

[11] = test system: Human immunodeficiency virus 1; type: functional, organism-based; details: Human immunodeficiency virus 1, MT4, 120 h; remark: listed apart in the source
[12] = test system: Human immunodeficiency virus 1; test: Antiviral activity against NNRTI-resistant HIV-1 harboring RT L100I mutant infected in human MT4 cells assessed as protection against virus-induced cytopathic effect incubated for 5 days by MTT assay; type: functional, organism-based; details: Human immunodeficiency virus 1, MT4, 120 h
[13] = biological target: Human immunodeficiency virus type 1 reverse transcriptase (Human immunodeficiency virus 1, UniProt Q72547); test: Inhibition of wild type HIV-1 Reverse transcriptase incubated for 1 hrs by ELISA analysis

SMILES	selectivity ratio (in vitro [1])	EC50 [2] [µM]	EC50 [3] [µM]	EC50 [4] [µM]	CC50 at 120 h [5] [µM]	EC50 [6] [µM]	EC50 [7] [µM]	EC50 [8] [µM]	selectivity ratio (in vitro [9])	EC50 [10] [µM]	EC50 [11] [µM]	EC50 [12] [µM]	IC50 [13] [µM]
Cc1cc(/C=C/C#N)cc(C)c1Oc1ccnc(Nc2ccc(N3CCN(S(C)(=O)=O)CC3)c(C#N)c2)n1	110	0.74	0.093	0.006	10.2	> 10.2	0.006	0.002	7170	0.001	0.01	0.004	–
Cc1cc(/C=C/C#N)cc(C)c1Oc1ccnc(Nc2ccc3sccc3c2)n1	–	–	> 1.71	–	1.71	> 1.71	–	–	221	0.008	–	–	0.045
Cc1cc(/C=C/C#N)cc(C)c1Oc1ccnc(Nc2ccc3c(c2)OCCO3)n1	–	–	> 12.1	–	12.1	> 12.1	–	–	855	0.014	–	–	0.05
Cc1cc(/C=C/C#N)cc(C)c1Oc1ccnc(Nc2ccc3c(C)cc(=O)oc3c2)n1	–	–	> 47.1	–	> 47.1	> 47.1	–	–	> 2590	0.018	–	–	0.078
Cc1cc(C#N)cc(C)c1Oc1nc(Nc2ccc(C#N)cc2)nc(N)c1Br [ETRAVIRINE]	–	0.031	0.032	–	> 4.59	> 4.59	–	–	–	–	0.017	–	–
Cc1cc(/C=C/C#N)cc(C)c1Oc1ccnc(Nc2ccc3c(c2)CCN(CCS(C)(=O)=O)C3)n1	–	–	> 4.77	–	4.77	> 4.77	–	–	256	0.019	–	–	0.17
Cc1cc(/C=C/C#N)cc(C)c1Oc1ccnc(Nc2ccc3ncsc3c2)n1	16	–	2.87	–	46	> 46	–	–	5140	0.009	–	–	0.07
Cc1cc(/C=C/C#N)cc(C)c1Oc1ccnc(Nc2ccc3c(c2)CCN(S(C)(=O)=O)C3)n1	–	–	> 6.63	–	6.63	> 6.63	–	–	970	0.007	–	–	0.1
COP(=O)(OC)N1CCc2ccc(Nc3nccc(Oc4c(C)cc(/C=C/C#N)cc4C)n3)cc2C1	–	–	> 7.01	–	7.01	> 7.01	–	–	58	0.12	–	–	0.63
Cc1cc(/C=C/C#N)cc(C)c1Oc1ccnc(Nc2ccc3c(c2)OC(F)(F)O3)n1	4	–	5.31	–	19.2	> 19.2	–	–	966	0.02	–	–	0.09
Cn1c(Cn2ccc(C(F)(F)F)c(Oc3cc(Cl)cc(C#N)c3)c2=O)n[nH]c1=O [DORAVIRINE]	> 931	1.71	0.05	0.019	> 47	> 47	0.017	0.01	> 6760	0.007	22.1	0.008	0.03
COP(=O)(OC)N1CCc2cc(Nc3nccc(Oc4c(C)cc(/C=C/C#N)cc4C)n3)ccc2C1	–	–	> 4.18	–	4.18	> 4.18	–	–	515	0.008	–	–	0.17
Cc1cc(/C=C/C#N)cc(C)c1Oc1ccnc(Nc2ccc3c(c2)C(=O)NC3)n1	–	–	> 103	–	103	> 103	–	–	16000	0.006	–	–	0.058
Cc1cc(/C=C/C#N)cc(C)c1Oc1ccnc(Nc2ccc3c(c2)CCN(C(=O)CS(C)(=O)=O)C3)n1	–	–	> 5.95	–	5.95	> 5.95	–	–	642	0.009	–	–	0.12
Cc1cc(/C=C/C#N)cc(C)c1Oc1ccnc(Nc2ccc3oncc3c2)n1	4	–	4.15	–	17.6	> 17.6	–	–	2640	0.007	–	–	0.065
Cc1cc(/C=C/C#N)cc(C)c1Oc1ccnc(Nc2ccc3c(c2)CN(C)C3=O)n1	–	–	> 40.4	–	40.4	> 40.4	–	–	1290	0.031	–	–	0.63
Cc1cc(/C=C/C#N)cc(C)c1Oc1ccnc(Nc2ccc3c(c2)CN(C(=O)CS(C)(=O)=O)CC3)n1	1	–	> 8.64	–	8.64	> 8.64	–	–	524	0.017	–	–	0.23
Cc1ccnc2c1NC(=O)c1cccnc1N2C1CC1 [NEVIRAPINE]	–	> 9.51	> 9.51	–	> 9.51	> 9.51	5.83	5.22	–	0.13	> 9.51	–	–
Cc1cc(/C=C/C#N)cc(C)c1Oc1ccnc(Nc2ccc3c(c2)CCN(S(N)(=O)=O)C3)n1	–	–	> 6.24	–	6.24	> 6.24	–	–	748	0.008	–	–	0.055
Cc1nc2cc(Nc3nccc(Oc4c(C)cc(/C=C/C#N)cc4C)n3)ccc2o1	–	–	> 1	–	1	> 1	–	–	129	0.008	–	–	0.053
Cc1cc(/C=C/C#N)cc(C)c1Oc1ccnc(Nc2ccc3c(c2)CN(CC#N)CC3)n1	–	–	> 5.85	–	5.85	> 5.85	–	–	159	0.037	–	–	0.25
Cc1nc2cc(Nc3nccc(Oc4c(C)cc(/C=C/C#N)cc4C)n3)ccc2s1	–	–	> 5.31	–	5.31	> 5.31	–	–	431	0.012	–	–	0.077
Cc1cc(/C=C/C#N)cc(C)c1Oc1ccnc(Nc2ccc3nc(C#N)sc3c2)n1	–	–	> 81.6	–	81.6	> 81.6	–	–	1330	0.061	–	–	1.13
Cc1cc(/C=C/C#N)cc(C)c1Oc1ccnc(Nc2ccc3c(cnn3C)c2)n1	–	> 50.5	> 50.5	0.054	> 50.5	> 50.5	0.18	0.018	> 18200	0.003	> 50.5	0.092	0.045
O=C1Nc2ccc(Cl)cc2[C@@](C#CC2CC2)(C(F)(F)F)O1 [EFAVIRENZ]	–	–	–	0.009	> 6.34	> 6.34	0.009	–	–	–	–	–	–
Cc1cc(/C=C/C#N)cc(C)c1Oc1ccnc(Nc2ccc3c(c2)CN(S(C)(=O)=O)CC3)n1	–	–	> 4.95	–	4.95	> 4.95	–	–	791	0.006	–	–	0.078
Cc1cc(/C=C/C#N)cc(C)c1Oc1ccnc(Nc2ccc3c(C(F)(F)F)cc(=O)oc3c2)n1	–	–	> 185	–	185	> 185	–	–	2420	0.076	–	–	0.23
Cc1cc(/C=C/C#N)cc(C)c1Oc1ccnc(Nc2ccc3c(c2)CN(S(N)(=O)=O)CC3)n1	2	–	6.47	–	11.6	> 11.6	–	–	743	0.016	–	–	0.11
